Patent US11071300B2, “Pesticidally active pyrazole derivatives” (SYNGENTA PARTICIPATIONS AG, priority 2017, dated 2021)
Read-outs that look alike come from different tables or passages of the source.

Columns and labels:
Type in all cases: in vivo
Diabrotica Balteata = test: Diabrotica balteata (corn root worm) maize sprout test; settings: 96 h, read-out: control (mortality and growth inhibition)
Method: Diabrotica Balteata, (Corn Root Worm)
Maize sprouts, placed on an agar layer in 24-well microtiter plates were treated with aqueous test solutions prepared from 10′000 ppm DMSO stock solutions by spraying. After drying, the plates were infested with L2 larvae (6 to 10 per well). The samples were assessed for mortality and growth inhibition in comparison to untreated samples 4 days after infestation.

Spodoptera littoralis = Spodoptera littoralis (Egyptian cotton leaf worm) leaf disc test; settings: foliar, 72 h, application rate 200 ppm, cotton leaf discs sprayed, L1 larvae, 3 days after infestation, read-out: control (at least one of mortality, anti-feedant effect, growth inhibition)
Method: Spodoptera littoralis (Egyptian Cotton Leaf Worm)
Cotton leaf discs were placed on agar in 24-well microtiter plates and sprayed with aqueous test solutions prepared from 10′000 ppm DMSO stock solutions. After drying the leaf discs were infested with five L1 larvae. The samples were assessed for mortality, anti-feedant effect, and growth inhibition in comparison to untreated samples 3 days after infestation. Control of Spodoptera littoralis by a test sample is when at least one of mortality, anti-feedant effect, and growth inhibition is higher than the untreated sample.

Thrips tabaci = Thrips tabaci (onion thrips) leaf disc test; settings: foliar, 144 h, read-out: control (mortality)
Method: Thrips tabaci (Onion Thrips):
Sunflower leaf discs were placed on agar in 24-well microtiter plates and sprayed with aqueous test solutions prepared from 10′000 ppm DMSO stock solutions. After drying the leaf discs were infested with a thrips population of mixed ages. The samples were assessed for mortality 6 days after infestation.

Tetranychus urticae = Tetranychus urticae (two-spotted spider mite) leaf disc test; settings: foliar, 192 h, application rate 200 ppm, bean leaf discs sprayed, 8 days after infestation, read-out: control (mortality on mixed population, mobile stages)
Method: Tetranychus urticae (Two-Spotted Spider Mite):
Bean leaf discs on agar in 24-well microtiter plates were sprayed with aqueous test solutions prepared from 10′000 ppm DMSO stock solutions. After drying the leaf discs were infested with a mite population of mixed ages. The samples were assessed for mortality on mixed population (mobile stages) 8 days after infestation.

Plutella xylostella = Plutella xylostella (diamond back moth) artificial diet test; settings: 120 h, read-out: control (mortality and growth inhibition)
Method: Plutella xylostella (Diamond Back Moth):
24-well microtiter plates with artificial diet were treated with aqueous test solutions prepared from 10′000 ppm DMSO stock solutions by pipetting. After drying, the plates were infested with L2 larvae (10 to 15 per well). The samples were assessed for mortality and growth inhibition in comparison to untreated samples 5 days after infestation.

Myzus persicae = Myzus persicae (green peach aphid) leaf disc test; settings: foliar, 144 h, read-out: control (mortality)
Method: Myzus persicae (Green Peach Aphid):
Sunflower leaf discs were placed on agar in a 24-well microtiter plate and sprayed with test solutions at an application rate of 200 ppm. After drying, the leaf discs were infested with an aphid population of mixed ages. After an incubation period of 6 DAT, samples were checked for mortality.

[1] = application rate 200 ppm, maize sprouts sprayed, L2 larvae, 4 days after infestation
[2] = application rate 200 ppm, sunflower leaf discs sprayed, mixed ages, 6 days after infestation
[3] = application rate 200 ppm, artificial diet, L2 larvae, 5 days after infestation
[4] = application rate 200 ppm, sunflower leaf discs sprayed, mixed ages, 6 DAT

Cn1nc(OS(=O)(=O)C(F)(F)C(F)(F)F)c(C(F)(F)F)c1-n1cc(-c2ccc(Cl)c(C(=O)NC3CC3)c2)cn1 [Compound 20, [5-[4-[4-chloro-3-(cyclopropylcarbamoyl)phenyl]pyrazol-1-yl]-1-methyl-4-(trifluoromethyl)pyrazol-3-yl] 1,1,2,2,2-pentafluoroethanesulfonate]
≥ 80%: mortality at 200 ppm (Diabrotica Balteata; [1]) | percent control (mortality, anti-feedant effect or growth inhibition) at 200 ppm (Spodoptera littoralis) | mortality at 200 ppm (Thrips tabaci; [2]) | mortality at 200 ppm (Tetranychus urticae) | mortality at 200 ppm (Plutella xylostella; [3])

CCN(C(=O)c1cc(-c2cnn(-c3c(C(F)(F)F)c(OS(=O)(=O)C(F)(C(F)(F)F)C(F)(F)F)nn3C)c2)cnc1Cl)C1CC1 [Compound 23, [5-[4-[6-chloro-5-[cyclopropyl(ethyl)carbamoyl]-3-pyridyl]pyrazol-1-yl]-1-methyl-4-(trifluoromethyl)pyrazol-3-yl] 1,1,1,2,3,3,3-heptafluoropropane-2-sulfonate]
≥ 80%: mortality at 200 ppm (Diabrotica Balteata; [1]) | percent control (mortality, anti-feedant effect or growth inhibition) at 200 ppm (Spodoptera littoralis) | mortality at 200 ppm (Tetranychus urticae) | mortality at 200 ppm (Plutella xylostella; [3]) | mortality at 200 ppm (Myzus persicae; [4])

CN(C(=O)c1cc(-c2cnn(-c3c(C(F)(F)F)c(OS(=O)(=O)C(F)(C(F)(F)F)C(F)(F)F)nn3C)c2)cnc1Cl)C1CC1 [Compound 22, [5-[4-[6-chloro-5-[cyclopropyl(methyl)carbamoyl]-3-pyridyl]pyrazol-1-yl]-1-methyl-4-(trifluoromethyl)pyrazol-3-yl] 1,1,1,2,3,3,3-heptafluoropropane-2-sulfonate]
≥ 80%: mortality at 200 ppm (Diabrotica Balteata; [1]) | percent control (mortality, anti-feedant effect or growth inhibition) at 200 ppm (Spodoptera littoralis) | mortality at 200 ppm (Thrips tabaci; [2]) | mortality at 200 ppm (Tetranychus urticae) | mortality at 200 ppm (Plutella xylostella; [3]) | mortality at 200 ppm (Myzus persicae; [4])

CN(C(=O)c1cc(-c2cnn(-c3c(C(F)(F)F)c(OS(=O)(=O)C(F)(F)C(F)(F)Cl)nn3C)c2)ccc1Cl)C1(C#N)CC1 [Compound 19, [5-[4-[4-chloro-3-[(1-cyanocyclopropyl)-methyl-carbamoyl]phenyl]pyrazol-1-yl]-1-methyl-4-(trifluoromethyl)pyrazol-3-yl] 2-chloro-1,1,2,2-tetrafluoro-ethanesulfonate]
≥ 80%: mortality at 200 ppm (Diabrotica Balteata; [1]) | percent control (mortality, anti-feedant effect or growth inhibition) at 200 ppm (Spodoptera littoralis) | mortality at 200 ppm (Thrips tabaci; [2]) | mortality at 200 ppm (Tetranychus urticae) | mortality at 200 ppm (Plutella xylostella; [3]) | mortality at 200 ppm (Myzus persicae; [4])

Cn1nc(OS(=O)(=O)C(F)(C(F)(F)F)C(F)(F)F)c(C(F)(F)F)c1-n1cc(-c2cnc(Cl)c(C(=O)NC3(C#N)CC3)c2)cn1 [Compound 24, [5-[4-[6-chloro-5-[(1-cyanocyclopropyl)carbamoyl]-3-pyridyl]pyrazol-1-yl]-1-methyl-4-(trifluoromethyl)pyrazol-3-yl] 1,1,1,2,3,3,3-heptafluoropropane-2-sulfonate]
≥ 80%: mortality at 200 ppm (Diabrotica Balteata; [1]) | percent control (mortality, anti-feedant effect or growth inhibition) at 200 ppm (Spodoptera littoralis) | mortality at 200 ppm (Tetranychus urticae) | mortality at 200 ppm (Plutella xylostella; [3])

Cn1nc(OS(=O)(=O)C(F)(C(F)(F)F)C(F)(F)F)c(C(F)(F)F)c1-n1cc(-c2ccc(Cl)c(C(=O)N(/C(F)=C(\F)C(F)(F)F)C3(C#N)CC3)c2)cn1 [Compound 58, [5-[4-[4-chloro-3-[(1-cyanocyclopropyl)-[(E)-1,2,3,3,3-pentafluoroprop-1-enyl]carbamoyl]phenyl]pyrazol-1-yl]-1-methyl-4-(trifluoromethyl)pyrazol-3-yl] 1,1,1,2,3,3,3-heptafluoropropane-2-sulfonate]
≥ 80%: mortality at 200 ppm (Diabrotica Balteata; [1]) | percent control (mortality, anti-feedant effect or growth inhibition) at 200 ppm (Spodoptera littoralis) | mortality at 200 ppm (Tetranychus urticae) | mortality at 200 ppm (Plutella xylostella; [3])

CCN(C(=O)c1cc(-c2cnn(-c3c(C(F)(F)F)c(OS(=O)(=O)C(F)(F)C(F)(F)C(F)(F)C(F)(F)F)nn3C)c2)cnc1Cl)C1CC1 [Compound 29, [5-[4-[6-chloro-5-[cyclopropyl(ethyl)carbamoyl]-3-pyridyl]pyrazol-1-yl]-1-methyl-4-(trifluoromethyl)pyrazol-3-yl] 1,1,2,2,3,3,4,4,4-nonafluorobutane-1-sulfonate]
≥ 80%: mortality at 200 ppm (Diabrotica Balteata) | mortality at 200 ppm (Plutella xylostella) | mortality at 200 ppm (Myzus persicae)

CCN(C(=O)c1cc(-c2cnn(-c3c(C(F)(F)F)c(OS(=O)(=O)C(F)(F)C(F)(F)Cl)nn3C)c2)ccc1Cl)C1CC1 [Compound 10, [5-[4-[4-chloro-3-[cyclopropyl(ethyl)carbamoyl]phenyl]pyrazol-1-yl]-1-methyl-4-(trifluoromethyl)pyrazol-3-yl] 2-chloro-1,1,2,2-tetrafluoro-ethanesulfonate]
≥ 80%: mortality at 200 ppm (Diabrotica Balteata; [1]) | percent control (mortality, anti-feedant effect or growth inhibition) at 200 ppm (Spodoptera littoralis) | mortality at 200 ppm (Thrips tabaci; [2]) | mortality at 200 ppm (Tetranychus urticae) | mortality at 200 ppm (Plutella xylostella; [3]) | mortality at 200 ppm (Myzus persicae; [4])

Cn1nc(OS(=O)(=O)C(F)(F)C(F)(F)C(F)(F)C(F)(F)F)c(C(F)(F)F)c1-n1cc(-c2cnc(Cl)c(C(=O)NC3CC3)c2)cn1 [Compound 27, [5-[4-[6-chloro-5-(cyclopropylcarbamoyl)-3-pyridyl]pyrazol-1-yl]-1-methyl-4-(trifluoromethyl)pyrazol-3-yl] 1,1,2,2,3,3,4,4,4-nonafluorobutane-1-sulfonate]
≥ 80%: mortality at 200 ppm (Diabrotica Balteata) | percent control (mortality, anti-feedant effect or growth inhibition) at 200 ppm (Spodoptera littoralis) | mortality at 200 ppm (Thrips tabaci) | mortality at 200 ppm (Plutella xylostella) | mortality at 200 ppm (Myzus persicae)

Cn1nc(OS(=O)(=O)C(F)(C(F)(F)F)C(F)(F)F)c(C(F)(F)F)c1-n1cc(-c2ccc(Cl)c(C(N)=O)c2)cn1 [Compound 67, [5-[4-(3-carbamoyl-4-chloro-phenyl)pyrazol-1-yl]-1-methyl-4-(trifluoromethyl)pyrazol-3-yl] 1,1,1,2,3,3,3-heptafluoropropane-2-sulfonate]
≥ 80%: percent control (mortality, anti-feedant effect or growth inhibition) at 200 ppm (Spodoptera littoralis) | mortality at 200 ppm (Tetranychus urticae) | mortality at 200 ppm (Plutella xylostella; [3])

CCN(C(=O)c1cc(-c2cc(-c3c(C(F)(F)F)c(OS(=O)(=O)C(F)(F)C(F)(F)C(F)(F)C(F)(F)F)nn3C)no2)ccc1Cl)C1CC1 [Compound 41, [5-[5-[4-chloro-3-[cyclopropyl(ethyl)carbamoyl]phenyl]isoxazol-3-yl]-1-methyl-4-(trifluoromethyl)pyrazol-3-yl] 1,1,2,2,3,3,4,4,4-nonafluorobutane-1-sulfonate]
≥ 80%: mortality at 200 ppm (Diabrotica Balteata) | mortality at 200 ppm (Myzus persicae)

Cn1nc(OS(=O)(=O)C(F)(C(F)(F)F)C(F)(F)F)c(C(F)(F)F)c1-n1cc(-c2ccc(Cl)c(C(=O)NC3(C(F)F)CC3)c2)cn1 [Compound 64, [5-[4-[4-chloro-3-[[1-(difluoromethyl)cyclopropyl]carbamoyl]phenyl]pyrazol-1-yl]-1-methyl-4-(trifluoromethyl)pyrazol-3-yl] 1,1,1,2,3,3,3-heptafluoropropane-2-sulfonate]
≥ 80%: percent control (mortality, anti-feedant effect or growth inhibition) at 200 ppm (Spodoptera littoralis) | mortality at 200 ppm (Tetranychus urticae) | mortality at 200 ppm (Plutella xylostella; [3]) | mortality at 200 ppm (Myzus persicae; [4])

CCN(C(=O)c1cc(-c2cnn(-c3c(C(F)(F)F)c(OS(=O)(=O)C(F)(F)C(F)(F)F)nn3C)c2)ccc1Cl)C1CC1 [Compound 14, [5-[4-[4-chloro-3-[cyclopropyl(ethyl)carbamoyl]phenyl]pyrazol-1-yl]-1-methyl-4-(trifluoromethyl)pyrazol-3-yl] 1,1,2,2,2-pentafluoroethanesulfonate]
≥ 80%: mortality at 200 ppm (Diabrotica Balteata; [1]) | percent control (mortality, anti-feedant effect or growth inhibition) at 200 ppm (Spodoptera littoralis) | mortality at 200 ppm (Thrips tabaci; [2]) | mortality at 200 ppm (Plutella xylostella; [3]) | mortality at 200 ppm (Myzus persicae; [4])
